Test results published in patent US5214034A, “Catechol derivatives, and preventive and remedial preparations for regressive disorders in the central nervous system containing the same” (priority 1986, dated 1993).
Entries after “also recorded” stand apart in the source; their conditions may differ.

Key:
NGF = NGF production in the central nervous system of normal rats by intraperitoneal injection (NGF content of brain tissue, ELISA); type: in vivo, rat (Wistar male)
Method: The derivative (A), e.g. R=Two H, R1 =H and R2 =n-propyl (hereinafter referred to as 4-n-propylcatechol), was administered to normal rats by intraperitoneal injection, and the effect was examined.
4-n-Propylcatechol was administered by intraperitoneal injection 4 times every other day in a dosage of 5 mg/kg. The rats were killed two days after the final administration. The NGF content of each parts in brain was measured. The content was compared with those of control group which was administered saline alone.
A variety of the derivative was administered three times every other day. The content of NGF in the forebrain after 48 hours and 7 days from the final administration was measured and illustrated in Table 7.
Wistar male rats (9-10-week old, 200-250 g of weight) were intraperitoneally injected with the test derivative in a volume of 0.5 ml as a saline solution, emulsion or suspension. Dose and administration times were the same as above. The rats were killed by a hard spinal blow two days after the final administration. Each parts of brain were dissected and subjected to the following treatment under ice cooling.
Each parts of brain were weighed and homogenized for 30 strokes by a Dounce type homogenizer in a homogenization buffer (0.1 M Tris-HCl, containing 2% bovine serum albumin fraction V, 2% gelatin, 1.0 M NaCl, 0.02% NaN3, 2 mM EDTA and 2.6 kiu/ml of aprotinin, pH 7.6) at a concentration of 10% (W/V) (only septum 5% (W/V)). Each homogenate was centrifuged at 100,000 xg for 10 minutes, and 50 μl of supernatant was added with the same amount of a dilution buffer (0.1 M Tris-HCl containing 2% bovine serum albumin fraction V, 0.05% NaN3 and 20 mM CaCl2, pH 7.6). Determination was conducted in accordance with a method of S. Furukawa et al. by using a high sensitivity ELISA system on 8-NGF which was described in J. Neurochem., 40, 734-744 (1983). Lower limit of determination is 0.25 pg/ml. Data are indicated as a mean value ±SE on the NGF content of tissue (pg/mg wet tissue) of five rats.

[1] = test system: production and secretion of NGF on L-M cells; assay: Promoting action for the production and secretion of NGF on L-M cells of mouse (ELISA); type: cell-based; settings: Mus musculus, 24 h, read-out: Ratio of NGF increase
Outline: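 Mouse L-M cells were grown 3 days at 37° C to confluence (about 10^6 cells/well), then switched to Medium 199 with 0.5% BSA containing test derivative at prescribed concentrations. NGF production and secretion were measured by ELISA following Furukawa et al.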

[2] = Table 6, i.p. 5 mg/kg, 4 times every other day
[3] = Table 6, i.p. 5 mg/kg, 4 times every other day, **P 0.01 vs saline

CCCc1ccc(O)c(O)c1 [R = Two H, R1 = H, R2 = n-Propyl, 4-n-propylcatechol]
NGF production in brain regions (in words) (NGF): marked activation of NGF production was observed in frontal cortex, hippocampus and olfactory bulb; also recorded: Significant increase in NGF level was also observed in the original region of cholinergic tracts
NGF content, cerebellum (NGF; [2]): 0.33 ± 0.16 pg/mg wet tissue
NGF content, striatum (NGF; [2]): 0.24 ± 0.04 pg/mg wet tissue
NGF content, NBM (nucleus basalis magnecellularis) (NGF; [3]): 1.69 ± 0.17 pg/mg wet tissue
NGF content, olfactory bulb (NGF; [3]): 1.70 ± 0.24 pg/mg wet tissue
NGF content, septum (NGF; [3]): 1.39 ± 0.14 pg/mg wet tissue
NGF content, hippocampus (NGF; Table 6, i.p. 5 mg/kg, 4 times every other day, *P < 0.05 vs saline): 3.92 ± 0.63 pg/mg wet tissue
NGF content, frontal cortex (NGF; Table 6, i.p. 5 mg/kg, 4 times every other day, two days after final administration, *P < 0.05 vs saline): 2.14 ± 0.49 pg/mg wet tissue
NGF content after 48 hr. (NGF; Table 7, i.p., three times every other day, 48 hours after final administration): 1.97 ± 0.41 pg/mg wet tissue of frontal co
NGF content after 7 days (NGF; Table 7, i.p., three times every other day, 7 days after final administration): 2.28 ± 0.29 pg/mg wet tissue of frontal co
fold induction at 30 µM [1]: 10.1 ± 1.14
fold induction at 100 µM [1]: 17.1 ± 2.7
